Data reported in US11571426B2, “Compositions for preventing or treating lupus” (CHONG KUN DANG PHARMACEUTICAL CORP., priority 2017, dated 2023).

What was measured:
[1] = test system: TNFα secretion in LPS-stimulated human monocyte cell lines (THP-1); assay: Suppression of TNFα secretion in LPS-stimulated THP-1 (ELISA); type: cell-based; settings: at both 100 nM and 300 nM
Protocol: To identify the efficacy of the inventive compounds on suppressing a TNFα secretion in immune responses, suppression of TNFα production, which was achieved by a treatment with compounds 374, 461, 500, 530 and 532 according to the present invention in LPS-stimulated human monocyte cell lines (THP-1), was quantified by means of an enzyme immuno-assay (ELISA).
Specifically, the THP-1 cell lines (ATCC) were cultured in an RPMI-1640 medium comprising 10% FBS. The cell lines were divided into a 24 well plate at a ratio of 1×10^5 cells per well, then treated with 100 ng/mL PMA (phorbol 12-myristate 13-acetate) for 24 hours, and then differentiated into macrophage. Then, the culture medium was replaced with a new one, then treated with a test drug for 24 hours, and then treated again with 10 ng/mL LPS (E. Coli, O55:B5) for four hours for stimulation. After that, supernatant was taken and used to measure the amount of TNFα secreted from the cells by means of a Human TNFα Instant ELISA kit (eBioscience, BMS223INST) according to a protocol provided by a manufacturer.

NZB/W F1 female mice [2] = assay: Weight recovery in SLE model mouse; type: in vivo
Protocol: (§1) 80 NZB/W F1 female mice (four weeks old) were purchased from Jackson Laboratory and maintained in an SPF breeding room with five mice per cage. Their weight and urine protein were measured at 24 weeks after birth (right before administration), and then all the animals except those having too much urine protein were divided into groups as shown in a table 2 below such that the urine protein and weight might be evenly distributed among the groups.
(§2) Then, the mice were administered as described in the table 2 once a day for about 19 weeks from 24 weeks after birth to 42 weeks after birth.

NZB/W F1 female mice [3] = assay: Serum anti-dsDNA antibodies (ELISA) in SLE model mouse; type: in vivo
Protocol: as §1, §2
(§3) The fresh urine of mice was collected before and after administration every two weeks, while blood collection was performed before and after administration every four weeks. The serum was prepared by centrifugation of the collected blood and then kept at −70° C.
To identify if the pharmaceutical composition according to the present invention may reduce an increased concentration of anti-dsDNA antibodies shown in the SLE model animal, a concentration of anti-dsDNA antibodies in mouse serum was measured by means of a mouse anti-dsDNA ELISA (enzyme-linked immunosorbent assay) kit (Shibayagi).

NZB/W F1 female mice [4] = assay: Serum cytokine level (Milliplex MAP kit) in SLE disease mouse; type: in vivo
Protocol: as §1, §2, §3
To analyze an effect of the inventive pharmaceutical composition on a change in a serum cytokine level in the SLE disease mouse, a level of GM-CSF, IFN-γ, IL-1α, IL-1β, IL-10, IL-12(p70), IL-15, IL-17a, IL-2, IL-4, IL-6, TNF-α, […], IL-22 and IL-23 in serum was measured by means of a Mouse cytokine Milliplex MAP kit (Merck Millipore), wherein the results thereof were shown in a table 3.
Data obtained from groups were compared using a Kruskal-Wallis (†p<0.05) *p<0.05 versus C group (Mann-Whitney U-test)

NZB/W F1 female mice [5] = assay: Serum CXCL10 and CCL2 in SLE disease mouse; type: in vivo; settings: 36 weeks old
Protocol: as §1, §2
Meanwhile, when a level of CXCL10 (IFN-inducible protein 10, IP-10) and CCL2 (MCP-1) in serum was measured at 36 weeks old, it was identified that the level of CXCL10 in serum was decreased in all the experimental groups, and the level of CCL2 in serum was decreased in the 50 mg/kg dosed group (FIG. 14).

NZB/W F1 female mice [6] = assay: Ratio of PreB and ProB cells in marrow (FACS); type: in vivo, mouse; settings: experimental groups vs control group
Protocol: as §1, §2
A ratio of pro B (B220+, CD43+) and pre B (B220+, CD43−) cells in mouse marrow cells was measured by means of FACS. To that end, the marrow cells were obtained by flushing a femur with PBS comprising 5% BSA. After that, red blood cells were hemolyzed by means of EL buffer, then washed with FACS buffer (5% BSA/PBS), and then stained with FITC-conjugated anti-mouse CD43 antibodies (ebioscience) and PE-conjugated anti-mouse […] antibodies (ebioscience), such that a ratio of Pre B (B220+CD43-) and Pro B (B220+CD43+) cells was measured.

NZB/W F1 female mice [7] = assay: Immunoglobulin isotypes in serum (Luminex); type: in vivo, mouse; settings: 50 mg/kg dosed group vs negative control
Protocol: as §1, §2
A concentration of immunoglobulin isotypes (IgG1, IgG2a, IgG2b, IgG3 and IgM) in the serum obtained during the mouse autopsy was measured by means of Luminex assay kit for mouse isotype (R&D systems, Minneapolis, Minn.).

[8] = group D, 10 mg/kg/day i.p., n =10
[9] = group E, 30 mg/kg/day i.p., n = 14
[10] = group F, 50 mg/kg/day i.p., n = 14
[11] = mice of the experimental groups

Structure (SMILES): O=C(NO)c1ccc(CN(C(=O)N2CCOCC2)c2cccc(C(F)(F)F)c2)cc1 [Compound 374, N-(4-(hydroxycarbamoyl)benzyl)-N-(3-(trifluoromethyl)phenyl)morpholine-4-carboxamide]
- level of TNFα secretion [1]: remarkably decreased
- weight (NZB/W F1 female mice [2]; 10 mg/kg dosed group, from about 40 weeks): recovered to the same level as that of the positive control group
- weight recovery (NZB/W F1 female mice [2]; 30 and 50 mg/kg dosed groups, vs positive control): more excellent weight recovery effect
- decrease of serum concentration of anti-dsDNA antibodies (NZB/W F1 female mice [3]; 50 mg/kg dosed group vs negative control): two-fold
- serum concentration of anti-dsDNA antibodies (NZB/W F1 female mice [3]; after 28 week after birth, all the experimental groups, vs negative control): tended to decrease more
- GM-CSF in serum (NZB/W F1 female mice [4]; [8]): 2.65 ± 2.65 pg/mL
- IFN-γ in serum (NZB/W F1 female mice [4]; [8]): 1.06 ± 1.06 pg/mL
- IL17 in serum (NZB/W F1 female mice [4]; [8]): 10.40 ± 3.86 pg/mL
- IL22 in serum (NZB/W F1 female mice [4]; [8]): 27.05 ± 9.95 pg/mL
- IL-1α in serum (NZB/W F1 female mice [4]; [8]): 371.96 ± 82.72 pg/mL
- IL-1β in serum (NZB/W F1 female mice [4]; [8]): 1.27 ± 0.65 pg/mL
- IL-2 in serum (NZB/W F1 female mice [4]; [8]): 1.91 ± 1.77 pg/mL
- IL-4 in serum (NZB/W F1 female mice [4]; [8]): 1.74 ± 0.19 pg/mL
- IL-6 in serum (NZB/W F1 female mice [4]; [8]): 7.21 ± 2.34 pg/mL
- IL-10 in serum (NZB/W F1 female mice [4]; [8]): 25.00 ± 8.01 pg/mL
- IL-12(70) in serum (NZB/W F1 female mice [4]; [8]): 1.94 ± 1.17 pg/mL
- IL-15 in serum (NZB/W F1 female mice [4]; [8]): 184.36 ± 88.58 pg/mL
- IL-23 in serum (NZB/W F1 female mice [4]; [8]): 1.96 ± 1.96 pg/mL
- TGF-β in serum (NZB/W F1 female mice [4]; [8]): 73356.45 ± 7258.05 pg/mL
- TNF-α in serum (NZB/W F1 female mice [4]; [8]): 7.91 ± 2.67 pg/mL
- GM-CSF in serum (NZB/W F1 female mice [4]; [9]): 5.32 ± 4.06 pg/mL
- IFN-γ in serum (NZB/W F1 female mice [4]; [9]): 6.60 ± 4.07 pg/mL
- IL17 in serum (NZB/W F1 female mice [4]; [9]): 21.14 ± 14.59 pg/mL
- IL22 in serum (NZB/W F1 female mice [4]; [9]): 13.00 ± 4.40 pg/mL
- IL-1α in serum (NZB/W F1 female mice [4]; [9]): 458.40 ± 90.79 pg/mL
- IL-1β in serum (NZB/W F1 female mice [4]; [9]): 74.66 ± 70.56 pg/mL
- IL-2 in serum (NZB/W F1 female mice [4]; [9]): 9.32 ± 4.75 pg/mL
- IL-4 in serum (NZB/W F1 female mice [4]; [9]): 8.60 ± 6.80 pg/mL
- IL-6 in serum (NZB/W F1 female mice [4]; [9]): 21.23 ± 13.62 pg/mL
- IL-10 in serum (NZB/W F1 female mice [4]; [9]): 56.55 ± 39.16 pg/mL
- IL-12(70) in serum (NZB/W F1 female mice [4]; [9]): 74.50 ± 63.63 pg/mL
- IL-15 in serum (NZB/W F1 female mice [4]; [9]): 162.41 ± 53.62 pg/mL
- IL-23 in serum (NZB/W F1 female mice [4]; [9]): 100.56 ± 100.56 pg/mL
- TGF-β in serum (NZB/W F1 female mice [4]; [9]): 58807.36 ± 6685.72 pg/mL
- TNF-α in serum (NZB/W F1 female mice [4]; [9]): 16.25 ± 13.46 pg/mL
- GM-CSF in serum (NZB/W F1 female mice [4]; [10]): 1.89 ± 1.89 pg/mL
- IFN-γ in serum (NZB/W F1 female mice [4]; [10]): 2.07 ± 1.44 pg/mL
- IL-1α in serum (NZB/W F1 female mice [4]; [10]): 629.16 ± 128.47 pg/mL
- IL-1β in serum (NZB/W F1 female mice [4]; [10]): 3.86 ± 2.09 pg/mL
- IL-2 in serum (NZB/W F1 female mice [4]; [10]): 4.09 ± 2.63 pg/mL
- IL-4 in serum (NZB/W F1 female mice [4]; [10]): 3.70 ± 1.73 pg/mL
- IL-6 in serum (NZB/W F1 female mice [4]; [10]): 5.69 ± 2.39 pg/mL
- IL-12(70) in serum (NZB/W F1 female mice [4]; [10]): 15.62 ± 12.09 pg/mL
- IL-23 in serum (NZB/W F1 female mice [4]; [10]): 41.34 ± 41.34 pg/mL
- TGF-β level (NZB/W F1 female mice [4]; [11]): increased
- serum concentration of IL-10 (NZB/W F1 female mice [4]; [11]): decreased
- serum concentration of IL-12 (NZB/W F1 female mice [4]; [11]): decreased
- serum concentration of IL-15 (NZB/W F1 female mice [4]; [11]): decreased
- serum concentration of IL-17 (NZB/W F1 female mice [4]; [11]): decreased
- serum concentration of IL-22 (NZB/W F1 female mice [4]; [11]): decreased
- serum concentration of TNF-α (NZB/W F1 female mice [4]; [11]): decreased
- level of CCL2 in serum (NZB/W F1 female mice [5]; 50 mg/kg dosed group): decreased
- level of CXCL10 in serum (NZB/W F1 female mice [5]; all the experimental groups): decreased
- ratio of pre B and pro B cells in marrow (NZB/W F1 female mice [6]): significant change in the ratio of pre B and pro B cells was not observed
- concentration of IgG1 in serum (NZB/W F1 female mice [7]): decreased
- concentration of IgG2a in serum (NZB/W F1 female mice [7]): decreased
- concentration of IgG2b in serum (NZB/W F1 female mice [7]): decreased
- concentration of IgG3 in serum (NZB/W F1 female mice [7]): decreased
- concentration of IgM in serum (NZB/W F1 female mice [7]): remarkably decreased
